One experiment concerns B16 melanoma cells. Description: effect of swainsonine on B16 melanoma solid tumor growth. It counts as in vivo, C57Bl/6 mice. The settings on record: for inhibition of B16 growth at other doses: 1.0, 0.01 and 0.001 μg Sw. The procedure: The B16 melanoma cells were purchased from American Type Culture Collection (ATCC). They were maintained in complete α-MEM (SIGMA) (with 10% fetal calf serum (FCS) (Sigma), 100 U/ml penicillin (Sigma), 100 μg/ml streptomycin (Sigma) and 2 mM glutamine (Sigma)) in Corning 75 cm^2 straight necked flasks (T75) and grown with 5.5% CO2 in air with 95% humidity in a New Brunswick Scientific water jacketed incubator. […] They were harvested using 1× Trypsin-EDTA (Sigma), centrifuged at 100×g with a Beckman TJ6 centrifuge, counted using a hemocytometer and stained with trypan blue to determine viability. The cells used for injection into the mice were washed three times in phosphate buffered saline (PBS), counted and resuspended in PBS at a final concentration of 6×10^6 cells per ml.
The swainsonine, purchased from Boehringer Mannheim, was initially suspended in PBS at 100 μg/ml. Subsequent dilutions utilized in the following experiments were made in PBS.
Fifteen female C57Bl/6 mice (6 weeks old, from Harlan Sprague Dawley Laboratories) were treated 3 times per week on a Monday-Wednesday-Friday (MWF) schedule for three weeks prior to the injection of the 6×10^5 B16 melanoma cells. The treatment consisted of 0.1 ml (total volume) intraperitoneal injections of swainsonine in the mornings before 9:00 am. The treatment groups were as follows:
The MWF treatment with the swainsonine continued after the tumor cell injection until the termination of the study. Once the tumor was palpable, electronic calipers were used to measure the length (l), width (w) and depth (d) of the tumor. The volume of the tumor was then determined by V=πr^2 ×d, with the assumption that the tumor is a […], then r=(l+w)/4.

For another experiment, the system named is α-mannosidase II. The following applies: in words; cited from earlier work.
A further experiment has as its system splenocytes. Description: effect of swainsonine on humoral immunity (PFC assay). The experiment is classed as in vivo, mouse. The procedure:
The plaque forming cell (PFC) assay was done according to the method developed by Jerne and Nordin (1963). The splenocytes were washed in serum-free RPMI-1640 and brought to a final concentration of 1×10^6 cell/100 μl. Sheep red blood cells (sRBC), from The Colorado Serum Company, were labelled with protein A from Staphylococcus aureus (Sigma). The sRBC's were washed 3 times with saline (0.85% NaCl), the packed cells were then incubated with 1 ml of protein A (0.5 mg/ml saline) and 10 ml of saline containing 0.1 μl of CrCl3 (35% solution) (Aldrich), for 20 minutes. The sRBC's were then washed 3 times with PBS and suspended in PBS to make a 30% solution. The sRBC's (50 μl) and splenocytes (100μl) were combined with SeaPlaque agarose (FMC Corporation) and smeared on a 75 mm×50 mm microscope slide to form a lawn of target red blood cells with uniformly dispersed effector cells. Each sample was done in triplicate. The agarose was allowed to harden and the slides were placed in trays containing serum-free RPMI-1640. The trays were incubated at 37° C. in a CO2 incubator for 90 min. After incubation the slides were placed in slide holders containing normal saline for a wash step. The rabbit/anti-mouse antibody (DAKO Corporation) was diluted 1:400 with serum free RPMI-1640 and added to the slide trays. Following another 90 min. incubation at 37° C. in a CO2 incubator, the slides were again washed. Fresh frozen guinea pig complement (GIBCO) (2%) in serum-free RPMI-1640 was added to the slide trays and incubated for another 60 to 90 min. depending on the time necessary for plaque formation. The number of plaques were counted and the results reported as number of plaque forming cells per 1×10^6 splenocytes.
Mice were pretreated for 3 weeks with Sw (0.1 μg and 0.01 μg), and then received B16 cells. At 3 time points post tumor cell injection (day 0, 7 and 14), the mice were sacrificed and the spleens were removed. The cells were then used to determine the effect of Sw on humoral immunity. […] The presence of a day 7 tumor caused a return to baseline for all the groups. […]

The next experiment has as its system antibody formation. The settings on record: in words, cited from earlier work.
The next experiment has as its system canine glioma (CG) cells. In words: NMR T-2* linewidth of canine glioma cells. The experiment is classed as cell-based. The text has this:
These measurements correlate with the status of the cell surface oligosaccharide display. When the GFE decreases, as in cellular senescence, the linewidth measurements decrease, indicating an increased frequency of motion of unfrozen water on the surface. […] Additional data which supports this phenomenological connection between linewidth changes and the functional surface organization include; t-butanol extraction results in uniform decreases in the linewidth; biomodulator treatment of PDL-35 IMR-90s prevents the linewidth changes observed with the senescent populations; and the correlation between the cell surface organization changes and the linewidth data. […] The cells used for all these experiments are between passage 30 and passage 75.
In the growth transformed population we use the term unregulated to distinguish the models. In this case the linewidth for the CG controls are much higher than the IMR-90 values and the re-regulation results in a lowering of these values, approaching the data for the IMR-90s.
The cell surface oligosaccharide display was assessed by methods developed previously. In brief, cells from a sub-culturing were aliquotted into 96 well trays at 5×10^5 cells per ml, 100 μL aliquots. After 16 hours of culture the cells were washed, fixed, and blocked with 0.1% BSA/PBS. Optimal lectin concentrations (5 μg/ml)were used to give 80 to 90% saturation of the available sites. Three carbohydrate ligands at 10 μg concentrations in triplicate or quadruplicate were then used to prepare competition curves for the lectin binding. The Bound over Free (B/F) ratio was calculated and the Ligand microprocessor program was used to determine the optimal fit of the data to a polynomial generated model. The Gibb's Free Energy (GFE) was calculated from the Scatchard data on the competition assay by the following equation: GFE=-RT ln Kequil. The proton NMR linewidth measurements were conducted as described previously.

We go through one compound from patent publication US5919464A, “Treatment of aberrant cellular states with biomodulators” (University of New Mexico, priority 1993, dated 1999).

Entries after “also recorded” stand apart in the source; their conditions may differ.

For `O[C@H]1[C@H]2[C@H](O)CCCN2C[C@H]1O` [Swainsonine, swainsonine], the “delay of tumor growth onset” value with B16 melanoma cells (0.1 μg Sw) is “two”. Further, the “reduction of tumor size compared to controls” value with B16 melanoma cells (0.1 μg Sw, day 9, p=0.03) is given as 74%; in the experiment on B16 melanoma cells (0.1 μg Sw, day 11, p=0.003), 68%. Further, the “day of palpable tumors” value with B16 melanoma cells (0.1 μg Sw, control day 5) worked out at 7 days. In addition, the “day of measurable tumors” value with B16 melanoma cells (0.1 μg Sw, control day 7) was 9 days. Besides, in the experiment on B16 melanoma cells (1.0 μg Sw, in words), the “tumor growth at 1.0 μg” value is “enhanced growth”. Besides, the “inhibition of B16 growth at other doses” value was “no effect on delaying growth” in the experiment with B16 melanoma cells (in words) and “less effective at inhibiting the B16 growth (p<0.5)” in the experiment on B16 melanoma cells (in words, listed as Sw). Moreover, the “α-mannosidase II” value with α-mannosidase II is recorded as “inhibition of α-mannosidase II”. Moreover, in the experiment with splenocytes (0.01 μg Sw 3 weeks over mice not receiving Sw, p=0.001), the “increase in plaque forming cells (PFC)” value was 89%. In addition, the “PFC versus control group” value in the experiment on splenocytes (0.1 μg Sw without tumor, in words) is given as “not as significantly different from the control group (p=0.04)”. Moreover, in the experiment with splenocytes (0.1 μg Sw, day 14, in words), the PFC versus controls entry is “not a significant difference between the controls and these treated mice (p=0.13)”. Further, the “antibody production after immunosuppressive factor” value with antibody formation (Sw 3.7-100 mg/kg i.p. 5 days) is given as “return to normal levels of antibody production”. Further, the “PFC numbers, Sw alone” value with antibody formation is reported as “no changes in PFC numbers”. Also, the “T-2* linewidth” value in the experiment on canine glioma (CG) cells (233 K, four weeks of treatment, mean ± SD) was determined as 300 ± 8. The “linewidth change versus controls” value in the experiment on canine glioma (CG) cells (after one treatment / one week, in words, listed as Sw) is “significant (P>0.01]) decreases in linewidth; also recorded: significantly (P>0.01) different from those of the untreated controls”. Moreover, the “linewidth after treatment withdrawal versus control” value with canine glioma (CG) cells (four weeks treatment, one week withdrawal, in words) was “still significantly different from control values”.
